We go through 4 molecules from patent US11337971B2, “Dopamine D3 receptor selective antagonists/partial agonists and uses thereof” (THE UNITED STATES OF AMERICA, AS REPRESENTED BY THE …, priority 2018, dated 2022).

Entries after “also recorded” stand apart in the source; their conditions may differ. Like-named read-outs stand apart in the source and are kept apart here.

One may read the Ki as the dissociation constant of the complex between target and ligand, obtained from inhibition or displacement. A word on the IC50: it is the point on the concentration scale where inhibition reaches its midpoint. One may read the EC50 as the concentration that produces a half-maximal response.

Data set [1] has as its target human D2R (Homo sapiens (Human), UniProt P14416). The data set can be described thus: Radioligand competition binding, [3H]N-methylspiperone, HEK293 membranes expressing human D2R. Conditions: read-out: D2R Ki ± SEM. The method in brief: (§1)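 HEK293 membranes (10 μg protein) incubated 1 h at room temperature in EBSS with 0.2 mM sodium metabisulfite, 0.4 nM [3H]N-methylspiperone and compound (10 μM to 10 pM, triplicate). Nonspecific binding defined with 10 μM butaclamol; GF/B filtration.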
Background: Displacement assays read how much labelled ligand stays bound in the presence of the test substance.

Data set [2] addresses human D3R (Homo sapiens (Human), UniProt P35462). The data set can be described thus: Radioligand competition binding, [3H]N-methylspiperone, HEK293 membranes expressing human D3R. The settings on record: for Ki: read-out: D3R Ki ± SEM; for D2/D3: ratio of Ki values. In short, it runs like this: as §1
In data set [3] the target is human dopamine D3R (Homo sapiens (Human), UniProt P35462). The data set can be described thus: D3R mitogenesis assay: stimulation or inhibition of quinpirole-stimulated mitogenesis in CHO cells. The class given is cell-based. Conditions: Table 2b; inhibition of quinpirole-stimulated mitogenesis; read-out: Antagonist IC50 ± S.E.M.
Data set [4] addresses T1, 5-HT1A (Homo sapiens (Human), UniProt P08908). The data set can be described thus: 5-HT1A [3H]-8-OH-DPAT binding. The settings on record: Table 3b; read-out: 5-HT1A [3H]-8-OH-DPAT Ki ± SEM.
Data set [5] addresses 5-HT2A (Homo sapiens (Human), UniProt P28223). The data set is described as follows: 5-HT2A [125I]DOI binding. The settings on record: Table 3b; read-out: 5-HT2A [125I]DOI Ki ± SEM.
For data set [6], the target named is 5-HT2C (Homo sapiens (Human), UniProt P28335). The data set is described as follows: 5-HT2C [125I]DOI binding. The settings on record: Table 3b; read-out: 5-HT2C [125I]DOI Ki ± SEM.
Data set [7] addresses T1, 5-HT1A. The data set can be described thus: 5-HT1A [35S]GTPγS binding functional assay. The class given is biochemical. Conditions: Table 3b; read-out: 5-HT1A [35S]GTPγS binding Agonist EC50 ± SEM. For orientation: GTPγS is a poorly hydrolysed GTP analogue; its binding reports G protein activation.
Data set [8] can be described thus: Phase I metabolic stability in rat liver microsomes. Format: in vitro ADME. The settings on record: phase I metabolic stability in rat liver microsomes. An excerpt:
Rat Liver Microsome Metabolic Stability: Test compounds including 3-F analogues (C4a, C4b, C5a, C5b) and 29, 19 as well as the R-, S-enantiomers of C4a, C5a, 29 and 19 were screened for phase I metabolic stability in rat liver microsomes.
On the technique in general: Microsomes from liver hold many membrane-bound enzymes, among them those of drug oxidation.

Data set [9] deals with Male Long-Evans rats. The data set can be described thus: Hot plate test of oxycodone-induced antinociceptive response in rats. Format: in vivo, rat. The settings on record: oxycodone in vehicle pretreated group. On the procedure: Nociceptive tests were performed using a hot plate device (Model 39, IITC Life Science Inc., Woodland Hills, Calif., USA). The rat was put inside a transparent cage on the hot plate (52±0.2° C.). When thermal nociceptive signs such as licking, stomping the hind paw, or jumping from the plate appeared, the rat was immediately removed from the cage. […] The cut-off time for the test was 60 s to avoid tissue damage.
These experiments involved 8 groups of rats (n=8-9/group) in 2 series of repeated testing: 4 groups were used to test the effects of compound (±)-29 pretreatment on the time course of antinociception induced by oxycodone at a single dose, and another 4 groups were used to test the effects of compound (±)-29 pretreatment on the antinociception induced by various oxycodone doses. Each rat was first habituated to the testing environment for 1 h, followed by placement on the hot plate without treatment to obtain baseline response latencies. The groups in the time course test received baseline testing. Then, group 1 was pretreated with vehicle, and the other 3 groups were pretreated with a dose of compound (±)-29 (5, 15 or 25 mg/kg, i.p.). Fifteen min following the pretreatment, each rat was challenged with a saline injection (1 ml/kg) and, 30 min later, tested for the second time on the hot plate. On the next day, each group received the same pretreatment as on day 1, but challenged with oxycodone (2 mg/kg, i.p.), and each rat was then tested again at 30-, 60- and 120-min following oxycodone challenge. […] Data were calculated as % of maximum percentage effect (% MPE) using the formula: (treatment value−basal value)/(cutoff value−basal value)×100.
Methods: Compound (±)-29 was administered 15 minutes before saline or oxycodone challenge at 5 mg/kg, 15 mg/kg, and 25 mg/kg. […] The rat was then immediately removed from the hot plate and the time latency was recorded.

The subject of data set [10] is Male Long-Evans rats. Conditions: Rice et al, 2012; cited from earlier work.
Data set [11] concerns opioid-induced conditioned place preference. Conditions: Ashby et al, 2003; cited from earlier work.
In data set [12] the test system is rhesus monkeys. The data set is described as follows: Thermal tail withdrawal model of oxycodone antinociception in rhesus monkeys. Format: in vivo, rhesus monkey. Conditions: FIG. 6B.

Chain of human D3R (P35462 whole entry): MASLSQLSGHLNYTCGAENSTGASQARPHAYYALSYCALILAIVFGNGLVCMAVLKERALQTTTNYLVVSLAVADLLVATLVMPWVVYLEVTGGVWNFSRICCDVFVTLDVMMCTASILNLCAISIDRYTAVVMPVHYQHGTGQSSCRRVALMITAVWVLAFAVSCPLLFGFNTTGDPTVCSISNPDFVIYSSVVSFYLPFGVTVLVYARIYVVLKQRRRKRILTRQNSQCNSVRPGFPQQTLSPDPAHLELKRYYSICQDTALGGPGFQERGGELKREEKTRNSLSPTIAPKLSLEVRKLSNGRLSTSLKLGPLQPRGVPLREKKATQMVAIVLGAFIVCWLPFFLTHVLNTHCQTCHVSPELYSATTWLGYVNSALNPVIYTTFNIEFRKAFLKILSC
Chain of human D2R (P14416 whole entry): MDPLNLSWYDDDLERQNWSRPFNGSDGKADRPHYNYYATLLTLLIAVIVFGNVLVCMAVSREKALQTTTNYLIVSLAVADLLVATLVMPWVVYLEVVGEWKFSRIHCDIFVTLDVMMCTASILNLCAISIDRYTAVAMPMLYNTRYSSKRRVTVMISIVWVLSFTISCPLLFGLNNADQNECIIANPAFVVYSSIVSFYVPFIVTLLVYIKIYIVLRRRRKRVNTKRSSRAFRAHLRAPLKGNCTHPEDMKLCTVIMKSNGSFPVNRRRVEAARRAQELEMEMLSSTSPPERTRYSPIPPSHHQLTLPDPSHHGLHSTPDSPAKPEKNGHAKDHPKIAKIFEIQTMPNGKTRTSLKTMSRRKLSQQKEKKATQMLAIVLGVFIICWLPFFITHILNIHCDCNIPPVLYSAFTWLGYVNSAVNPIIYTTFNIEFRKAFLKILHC
T1 sequence (P08908 whole entry, species assumed): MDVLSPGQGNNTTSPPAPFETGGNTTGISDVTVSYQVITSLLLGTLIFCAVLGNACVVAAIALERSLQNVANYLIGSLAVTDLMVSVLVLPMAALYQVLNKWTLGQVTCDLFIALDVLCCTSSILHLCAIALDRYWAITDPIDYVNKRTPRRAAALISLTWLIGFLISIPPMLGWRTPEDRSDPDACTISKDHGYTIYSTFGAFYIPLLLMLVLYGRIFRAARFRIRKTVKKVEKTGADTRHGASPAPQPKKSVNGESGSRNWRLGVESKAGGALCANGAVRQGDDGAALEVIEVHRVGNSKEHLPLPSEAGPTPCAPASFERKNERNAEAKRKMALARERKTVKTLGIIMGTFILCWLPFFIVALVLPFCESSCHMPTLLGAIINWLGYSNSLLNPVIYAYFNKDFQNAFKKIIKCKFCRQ
Chain of 5-HT2A (P28223 whole entry, species assumed): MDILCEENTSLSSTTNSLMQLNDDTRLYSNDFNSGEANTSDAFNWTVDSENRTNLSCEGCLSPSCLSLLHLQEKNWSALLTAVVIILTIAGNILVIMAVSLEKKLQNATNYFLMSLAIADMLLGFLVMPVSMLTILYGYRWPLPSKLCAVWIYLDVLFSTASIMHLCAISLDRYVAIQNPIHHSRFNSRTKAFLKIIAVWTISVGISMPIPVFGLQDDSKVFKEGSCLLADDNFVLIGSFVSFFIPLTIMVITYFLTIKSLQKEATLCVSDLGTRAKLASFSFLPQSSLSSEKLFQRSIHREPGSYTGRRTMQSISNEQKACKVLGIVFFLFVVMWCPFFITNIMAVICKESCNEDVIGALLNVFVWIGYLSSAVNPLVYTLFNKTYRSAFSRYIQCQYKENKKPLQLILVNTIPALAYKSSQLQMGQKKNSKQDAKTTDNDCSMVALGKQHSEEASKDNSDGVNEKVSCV
Chain of 5-HT2C (P28335 33-458, species assumed): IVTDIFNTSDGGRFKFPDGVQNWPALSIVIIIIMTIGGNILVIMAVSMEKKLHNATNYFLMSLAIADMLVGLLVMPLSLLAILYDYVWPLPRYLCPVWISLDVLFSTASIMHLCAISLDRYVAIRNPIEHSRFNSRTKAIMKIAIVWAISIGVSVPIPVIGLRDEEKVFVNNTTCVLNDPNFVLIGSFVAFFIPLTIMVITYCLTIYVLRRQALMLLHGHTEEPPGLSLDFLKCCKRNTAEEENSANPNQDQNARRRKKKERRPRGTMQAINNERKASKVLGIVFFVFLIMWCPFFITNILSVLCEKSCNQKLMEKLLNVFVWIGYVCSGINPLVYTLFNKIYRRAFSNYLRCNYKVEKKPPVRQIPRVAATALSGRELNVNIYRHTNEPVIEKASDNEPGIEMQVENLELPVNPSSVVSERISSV
Chain of human dopamine D3R (P35462 whole entry): as the sequence (P35462 whole entry) above

In the case of `CCc1cccc(N2CCN(CC(F)CCNC(=O)c3cc4ccccc4o3)CC2)c1Cl` (racemic) [Compound C5b, N-(4-(4-(2-chloro-3-ethylphenyl)piperazin-1-yl)-3-fluorobutyl)benzofuran-2-carboxamide], the inhibition constant (Ki) was 0.295 ± 0.0301 µM in [1] (Table 1B, [3H]-N-methylspiperone competition, D2LR, 96-well plates); 0.328 ± 0.0335 µM in data set [1] (Table 1C); 0.00209 ± 0.000484 µM in data set [2] (Table 1B, [3H]-N-methylspiperone competition, 96-well plates); 0.00245 ± 0.00051 µM in data set [2] (Table 1C); 0.117 ± 0.014 µM in [4]; 0.336 ± 0.019 µM in data set [5]. In addition, the Ki in data set [6] came to 0.464 ± 0.036 µM. Further, the D2/D3 in data set [2] (Table 1B) was 141; in [2] (Table 1C), 134. Moreover, the IC50 in [3] was found to be 0.45 ± 0.16 µM. In data set [7], the EC50 is 0.351 ± 0.084 µM. In addition, in data set [8], the “% intact/parent remaining” value is given as 34%.

With `COc1ccc2c3c1O[C@H]1C(=O)CC[C@@]4(O)[C@@H](C2)N(C)CC[C@]314` [Oxycodone, reference compound], the “% MPE, hot plate” value in [9] was “significantly increased % MPE; also recorded: dose-dependently increased MPE %”.

As for `N#Cc1ccc2c(c1)CCN(CCC1CCC(NC(=O)c3ccnc4ccccc34)CC1)C2` (stereo not shown) [SB-277011A], the “CPA induced by naloxone-precipitated withdrawal” value in data set [10] is reported as “significantly blocked CPA induced by naloxone-precipitated withdrawal”. Further, in data set [11], the “opioid-induced conditioned place preference” value is on record as “significantly inhibiting opioid-induced conditioned place preference”.

For `O=C1CC[C@@]2(O)[C@H]3Cc4ccc(O)c5c4[C@@]2(CCN3CC2CC2)[C@H]1O5` [naltrexone, reference compound], the “effect on oxycodone antinociception” value in [12] is “deleterious effects on oxycodone antinociception”.
